# Assay results as given in US20250019367A1, “Methods for Separation of Enantiomers” (Mirati Therapeutics, Inc., priority 2021, published 2025).
# Assay: Solid form stability versus water activity
# Assay type: physicochemical
# Settings: IPA-water mixtures, water activity αw
# From the text: In certain such embodiments, the reacting step (c) occurs in an iso-propyl alcohol (IPA, i-PrOH) solution, or isopropyl alcohol and water solution. […] mixtures of IPA-water (e.g. 90/10 v/v) are preferred to maximize recovery and control API form. […] In certain embodiments, the step (c) solution is optionally seeded with M-enantiomer free base Compound 2.
smiles,measurement,value
"Cn1ncc(-c2ccc3c(=O)[nH]nc(CN)c3c2)c1-c1c(F)c(Cl)cc(OC2CC2)c1C#N [Free Base Type A, (2M)-2-(4-(4-(aminomethyl)-1-oxo-1,2-dihydrophthalazin-6-yl)-1-methyl-1H-pyrazol-5-yl)-4-chloro-6-cyclopropoxy-3-fluorobenzonitrile]",water activity at which the form is the most stable,≥ 0.13
